Test results: ChEMBL document CHEMBL3425446, “Isolation, semi-synthesis and bio-evaluation of spatane derivatives from the brown algae Stoechospermum marginatum” (Bioorg Med Chem Lett, 2015)
≈ marks a conversion by molar mass, not a printed value. Calls of active or inactive are those of the source. The calls are words filed in the database; no cut-off is given here.

What was measured:
[1] = test system: Escherichia coli; assay: Antibacterial activity against Escherichia coli assessed as growth inhibition at 0.5 mg/ml after 24 hrs by well diffusion method; format: functional; details: read-out: DIZ
[2] = test system: Bacillus subtilis; assay: Antibacterial activity against Bacillus subtilis assessed as growth inhibition at 0.5 mg/ml after 24 hrs by well diffusion method; format: functional; details: read-out: DIZ
[3] = test system: Micrococcus luteus; assay: Antibacterial activity against Micrococcus luteus assessed as growth inhibition at 0.5 mg/ml after 24 hrs by well diffusion method; format: functional; details: read-out: DIZ
[4] = test system: Klebsiella pneumoniae; assay: Antibacterial activity against Klebsiella pneumoniae assessed as growth inhibition at 0.5 mg/ml after 24 hrs by well diffusion method; format: functional; details: read-out: DIZ
[5] = test system: Escherichia coli; assay: Antibacterial activity against Escherichia coli assessed as compound concentration required to complete growth inhibition at 8 hrs by tube dilution method; format: functional
[6] = test system: Bacillus subtilis; assay: Antibacterial activity against Bacillus subtilis assessed as compound concentration required to complete growth inhibition at 8 hrs by tube dilution method; format: functional
[7] = test system: Micrococcus luteus; assay: Antibacterial activity against Micrococcus luteus assessed as compound concentration required to complete growth inhibition at 8 hrs by tube dilution method; format: functional
[8] = test system: Klebsiella pneumoniae; assay: Antibacterial activity against Klebsiella pneumoniae assessed as compound concentration required to complete growth inhibition at 8 hrs by tube dilution method; format: functional
[9] = test system: THP-1; assay: Cytotoxicity against human THP1 cells assessed as decrease in cell number after 24 hrs by MTT assay; format: functional, cell-based; details: THP-1, 24 h
[10] = Cytotoxicity against human U937 cells assessed as decrease in cell number after 24 hrs by MTT assay; format: functional, cell-based; details: U-937, 24 h
[11] = Cytotoxicity against mouse B16F10 cells assessed as decrease in cell number after 24 hrs by MTT assay; format: functional, cell-based; details: B16-F10, 24 h
[12] = test system: COLO 205; assay: Cytotoxicity against human COLO205 cells assessed as decrease in cell number after 24 hrs by MTT assay; format: functional, cell-based; details: COLO 205, 24 h
[13] = Cytotoxicity against human HL60 cells assessed as decrease in cell number after 24 hrs by MTT assay; format: functional, cell-based; details: HL-60, 24 h
[14] = test system: COLO 205; assay: Cytotoxicity against human COLO205 cells assessed as growth inhibition at 200 ug/ml after 24 hrs by MTT assay; format: functional, cell-based
[15] = test system: Aspergillus niger; assay: Antifungal activity against Aspergillus niger assessed as growth inhibition at 0.5 mg/ml after 48 hrs by well diffusion method; format: functional, organism-based
[16] = test system: Aspergillus fumigatus; assay: Antifungal activity against Aspergillus fumigatus assessed as growth inhibition at 0.5 mg/ml after 48 hrs by well diffusion method; format: functional, organism-based
[17] = test system: Aspergillus terreus; assay: Antifungal activity against Aspergillus terreus assessed as growth inhibition at 0.5 mg/ml after 48 hrs by well diffusion method; format: functional, organism-based

Row | Structure (SMILES) | zone of inhibition at 500 µg/mL [1] [mm] | zone of inhibition at 500 µg/mL [2] [mm] | zone of inhibition at 500 µg/mL [3] [mm] | zone of inhibition at 500 µg/mL [4] [mm] | MIC [5] [µg/mL] | MIC [6] [µg/mL] | MIC [7] [µg/mL] | MIC [8] [µg/mL] | IC50 [9] [µg/mL] | IC50 [10] [µg/mL] | IC50 [11] [µg/mL] | IC50 [12] [µg/mL] | IC50 [13] [µg/mL] | growth inhibition (GI) [14] | zone of inhibition [15] [mm] | zone of inhibition [16] [mm] | zone of inhibition [17] [mm]
1 | C=C(C(O)/C=C/C(C)(O)COC(C)=O)[C@@H]1C[C@@H](OC(C)=O)[C@@]2(C)[C@@H]1[C@@H]1[C@H](C)CC[C@@H]12 (mixture of isomers) | 11.3 | 14.3 | 14.7 | 10.7 | 50 | 50 | 50 | 50 | 14.2 | 5.6 | 3.45 | 36.1 | 41 | – | – | – | –
2 | C=C(C(O)/C=C/C(C)(O)COC(C)=O)[C@@H]1CC(=O)[C@@]2(C)[C@@H]1[C@@H]1[C@H](C)CC[C@@H]12 (mixture of isomers) | 0 | 0 | 0 | 0 | 100 | 100 | 200 | 200 | 52 | 43.6 | 58.5 | – | 43.9 | inactive | – | – | –
3 | C=C(CC(C=C(C)C)OC(C)=O)[C@@H]1C[C@@H](OC(C)=O)[C@@]2(C)[C@@H]1[C@@H]1[C@H](C)CC[C@@H]12 (mixture of isomers) | 0 | 11.3 | 12.3 | 12.3 | 400 | 400 | 400 | 400 | 77.8 | 40.1 | 29 | 67.1 | 84.9 | – | – | – | –
4 | C=C(C/C=C/C(C)(C)O)[C@@H]1C[C@@H](OC(C)=O)[C@@]2(C)[C@@H]1[C@@H]1[C@H](C)CC[C@@H]12 (mixture of isomers) | 13.3 | 15.3 | 15.3 | 16 | 400 | 200 | 200 | 200 | 44.6 | 48.5 | 47.1 | 64.7 | 39.9 | – | – | – | –
5 | C=C(C)C(O)CCC(=C)[C@@H]1C[C@@H](OC(C)=O)[C@@]2(C)[C@@H]1[C@@H]1[C@H](C)CC[C@@H]12 (mixture of isomers) | 15.7 | 13.7 | 16.3 | 19 | 100 | 100 | 50 | 50 | 58.1 | 35.1 | 104 | 145 | 157 | – | – | – | –
6 | C[C@@H]1C[C@@H]([C@H](O)CC2CC(=O)NC(=O)C2)C(=O)[C@@H](C)C1 [CYCLOHEXIMIDE] | – | – | – | – | – | – | – | – | – | – | – | – | – | – | 17.7 | 16.3 | 15.7
7 | COc1cc([C@@H]2c3cc4c(cc3[C@@H](O[C@@H]3O[C@@H]5CO[C@@H](C)O[C@H]5[C@H](O)[C@H]3O)[C@H]3COC(=O)[C@H]23)OCO4)cc(OC)c1O [ETOPOSIDE] | – | – | – | – | – | – | – | – | 5.02 (≈ 8.53 µM) | 2.27 (≈ 3.86 µM) | 4.12 (≈ 7 µM) | 1.07 (≈ 1.82 µM) | 2.12 (≈ 3.6 µM) | – | – | – | –
8 | CC(=O)N1CCN(c2ccc(OCC3COC(Cn4ccnc4)(c4ccc(Cl)cc4Cl)O3)cc2)CC1 (centres undefined) [KETOCONAZOLE] | – | – | – | – | – | – | – | – | – | – | – | – | – | – | 22.7 | 20.7 | 20
9 | CN[C@@H]1[C@H](O[C@H]2[C@H](O[C@H]3[C@H](O)[C@@H](O)[C@H](N=C(N)N)[C@@H](O)[C@@H]3N=C(N)N)O[C@@H](C)[C@]2(O)C=O)O[C@@H](CO)[C@H](O)[C@H]1O.CN[C@@H]1[C@H](O[C@H]2[C@H](O[C@H]3[C@H](O)[C@@H](O)[C@H](N=C(N)N)[C@@H](O)[C@@H]3N=C(N)N)O[C@@H](C)[C@]2(O)C=O)O[C@@H](CO)[C@H](O)[C@H]1O.O=S(=O)(O)O.O=S(=O)(O)O.O=S(=O)(O)O [STREPTOMYCIN SULFATE] | 30.3 | 28.7 | 28.7 | 27.3 | 6.25 | 6.25 | 6.25 | 6.25 | – | – | – | – | – | – | – | – | –
